Laboratory results published in EP4324461A1, “(E)-N-CINAMOYLAMINOALKANOLES WITH MELANOGENESIS INHIBITORY ACTIVITY” (UNIWERSYTET JAGIELLONSKI, priority 2022, dated 2024).

Key:
Format in all cases: cell-based
Primary melanocytes [1] = assay: Safety, MTT test in primary melanocytes; settings: 48 hours
Experimental: (§1) In order to test the safety of the compounds, both normal human cells were used: keratinocytes (HaCaT), fibroblasts (BJ), primary melanocytes that occur in the skin, as well as human cancer cells: the hepatocarcinoma line HepG2 and the neuroblastoma line SH-SY5Y, which are considered a model for the assessment of hepatocytotoxicity and neurocytotoxicity. The concentrations of the tested compounds in the range of 250-100 µM were used in the studies. The cell lines used in the research were purchased from the American Type Culture Collection (ATCC) and were cultured in media recommended by the manufacturer with the addition of FBS and antibiotics in an incubator ensuring appropriate culture conditions, i.e. humidity, temperature and CO2 concentration. Cells were seeded into multiwell plates and incubated with the test compounds for 48 hours. After this time, MTT and LDH tests were performed to assess cell viability. The MTT test is based on the ability to transform the substrate: [3-(4,5-dimethyl-2-thiazolyl)-2,5-diphenyl-2H-tetrazolium bromide into a colored product only by living cells. The absorbance at 570 nm, which corresponds to the absorption maximum for the product, is directly proportional to cell viability. The LDH test is based on testing the activity of the enzyme lactate dehydrogenase in the culture medium, which is released from cells as a result of damage to the cell membrane, e.g. as a result of cell death. Triton X-100 was used as a positive control in the test. The determination is colorimetric, the substrate is transformed by the released enzyme into a colored product, an increase in absorbance indicates a larger amount of the released enzyme, and thus confirms greater damage to cell membranes. Tables 7 and 8 present the results obtained, which correspond to the viability of cells incubated with the compounds in relation to the viability of cells constituting a control sample, i.e. incubated with the solvent (DMSO) at the same concentration as in the case of the groups tested in the MTT test or in relation to the results obtained for the Triton X-100 positive control in the LDH test. They indicate that the compounds are safe at the concentrations tested. Table 7. Viability of tested normal human cell lines: keratinocytes (HaCaT), fibroblasts (BJ) and primary melanocytes after incubation with the tested compounds - determination in the MTT test (% of solvent control ± SD) and LDH (percentage of positive control - Triton X-100.

Hepatocarcinoma HepG2 [2] = assay: Safety, LDH test in HepG2; settings: 48 hours, positive control Triton X-100
Experimental: as §1

Keratinocytes (HaCaT) = assay: Safety, MTT test in keratinocytes; settings: 48 hours
Experimental: as §1

neuroblastoma SH-SY5Y = assay: Safety, LDH test in SH-SY5Y; settings: 48 hours, positive control Triton X-100
Experimental: as §1

Fibroblasts (BJ) [3] = assay: Safety, LDH test in fibroblasts; settings: 48 hours, positive control Triton X-100
Experimental: as §1

Primary melanocytes [4] = assay: Safety, LDH test in primary melanocytes; settings: 48 hours, positive control Triton X-100
Experimental: as §1

Fibroblasts (BJ) [5] = assay: Safety, MTT test in fibroblasts; settings: 48 hours
Experimental: as §1

Hepatocarcinoma HepG2 [6] = assay: Safety, MTT test in HepG2; settings: 48 hours
Experimental: as §1

## O=C(/C=C/c1ccc(Cl)cc1)NCCCO [H-330/21, (2E)-3-(4-chlorophenyl)-N-(3-hydroxypropyl)prop-2-enamide]
Primary melanocytes [1]; 100 µM
  Primary melanocytes MTT: 101.42±2.21 % of solvent control
Primary melanocytes [1]; 150 µM
  Primary melanocytes MTT: 97.02±4.49 % of solvent control
Primary melanocytes [1]; 200 µM
  Primary melanocytes MTT: 93.78±2.29 % of solvent control
Primary melanocytes [1]; 250 µM
  Primary melanocytes MTT: 90.27±2.25 % of solvent control
Hepatocarcinoma HepG2 [2]; 100 µM
  Hepatocarcinoma HepG2 LDH: 5.38 percentage of positive control
Hepatocarcinoma HepG2 [2]; 150 µM
  Hepatocarcinoma HepG2 LDH: 4.90 percentage of positive control
Hepatocarcinoma HepG2 [2]; 200 µM
  Hepatocarcinoma HepG2 LDH: 12.16 percentage of positive control
Hepatocarcinoma HepG2 [2]; 250 µM
  Hepatocarcinoma HepG2 LDH: 19.02 percentage of positive control
Keratinocytes (HaCaT); 100 µM
  Keratinocytes (HaCaT) MTT: 102.03±1.45 % of solvent control
Keratinocytes (HaCaT); 150 µM
  Keratinocytes (HaCaT) MTT: 101.42±2.04 % of solvent control
Keratinocytes (HaCaT); 200 µM
  Keratinocytes (HaCaT) MTT: 97.07±2.81 % of solvent control
Keratinocytes (HaCaT); 250 µM
  Keratinocytes (HaCaT) MTT: 94.89±1.06 % of solvent control
Neuroblastoma SH-SY5Y; 100 µM
  Neuroblastoma SH-SYSY LDH: 6.19 percentage of positive control
Neuroblastoma SH-SY5Y; 150 µM
  Neuroblastoma SH-SYSY LDH: 4.90 percentage of positive control
Neuroblastoma SH-SY5Y; 200 µM
  Neuroblastoma SH-SYSY LDH: 8.35 percentage of positive control
Neuroblastoma SH-SY5Y; 250 µM
  Neuroblastoma SH-SYSY LDH: 13.41 percentage of positive control
Fibroblasts (BJ) [3]; 100 µM
  Fibroblasts (BJ) LDH: 4.74 percentage of positive control
Fibroblasts (BJ) [3]; 150 µM
  Fibroblasts (BJ) LDH: 6.50 percentage of positive control
Fibroblasts (BJ) [3]; 200 µM
  Fibroblasts (BJ) LDH: 14.25 percentage of positive control
Fibroblasts (BJ) [3]; 250 µM
  Fibroblasts (BJ) LDH: 28.74 percentage of positive control
Primary melanocytes [4]; 100 µM
  Primary melanocytes LDH: 5.63 percentage of positive control
Primary melanocytes [4]; 150 µM
  Primary melanocytes LDH: 13.09 percentage of positive control
Primary melanocytes [4]; 200 µM
  Primary melanocytes LDH: 10.91 percentage of positive control
Primary melanocytes [4]; 250 µM
  Primary melanocytes LDH: 18.10 percentage of positive control
Fibroblasts (BJ) [5]; 100 µM
  Fibroblasts (BJ) MTT: 100.54±5.01 % of solvent control
Fibroblasts (BJ) [5]; 150 µM
  Fibroblasts (BJ) MTT: 94.85±3.51 % of solvent control
Fibroblasts (BJ) [5]; 200 µM
  Fibroblasts (BJ) MTT: 85.52±3.08 % of solvent control
Fibroblasts (BJ) [5]; 250 µM
  Fibroblasts (BJ) MTT: 76.51±1.80 % of solvent control
Hepatocarcinoma HepG2 [6]; 100 µM
  Hepatocarcinoma HepG2 MTT: 100.73±4.51 % of solvent control
Hepatocarcinoma HepG2 [6]; 150 µM
  Hepatocarcinoma HepG2 MTT: 100.44±3.93 % of solvent control
Hepatocarcinoma HepG2 [6]; 200 µM
  Hepatocarcinoma HepG2 MTT: 100.86±6.41 % of solvent control
Hepatocarcinoma HepG2 [6]; 250 µM
  Hepatocarcinoma HepG2 MTT: 93.16±1.71 % of solvent control
